Data taken from the NIST ThermoML archive (doi:10.1016/j.tca.2013.08.031).

Test: molar heat capacity at constant volume
Conditions: Fluid (supercritical or subcritical phases), Vacuum adiabatic calorimetry

CCC(C)O (stereo not given) [butan-2-ol]
Conditions	molar heat capacity at constant volume [J/K/mol]
535.75 K, Mass density=276.45 kg/m3	527.97
535.77 K, Mass density=276.45 kg/m3	533.08
535.79 K, Mass density=276.45 kg/m3	548.5
535.81 K, Mass density=276.45 kg/m3	529.67
535.83 K, Mass density=276.45 kg/m3	536.49
535.85 K, Mass density=276.45 kg/m3	560.43
535.86 K, Mass density=276.45 kg/m3	562.14
535.88 K, Mass density=276.45 kg/m3	565.55
535.9 K, Mass density=276.45 kg/m3	627.07
535.92 K, Mass density=198.25 kg/m3	287.44
535.92 K, Mass density=245.67 kg/m3	437.17
535.92 K, Mass density=276.45 kg/m3	603.13
535.92 K, Mass density=279.19 kg/m3	513.14
535.92 K, Mass density=284.93 kg/m3	498.99
535.92 K, Mass density=286.65 kg/m3	532.71
535.92 K, Mass density=301.19 kg/m3	383.21
535.92 K, Mass density=347.06 kg/m3	252.01
535.94 K, Mass density=284.93 kg/m3	419.68
535.94 K, Mass density=286.65 kg/m3	578.37
535.95 K, Mass density=284.93 kg/m3	421.31
535.95 K, Mass density=286.65 kg/m3	524.41
535.97 K, Mass density=284.93 kg/m3	349.85
535.97 K, Mass density=286.65 kg/m3	524.41
535.99 K, Mass density=284.93 kg/m3	316.57
536.01 K, Mass density=284.93 kg/m3	314.87
536.01 K, Mass density=286.65 kg/m3	402.85
536.02 K, Mass density=284.93 kg/m3	309.9
536.02 K, Mass density=286.65 kg/m3	345.48
536.04 K, Mass density=284.93 kg/m3	311.53
536.04 K, Mass density=286.65 kg/m3	354.45
536.06 K, Mass density=284.93 kg/m3	311.53
536.06 K, Mass density=286.65 kg/m3	328.36
536.07 K, Mass density=284.93 kg/m3	306.57
536.07 K, Mass density=286.65 kg/m3	328.58
536.1 K, Mass density=198.25 kg/m3	281.66
536.1 K, Mass density=245.67 kg/m3	331.55
536.1 K, Mass density=279.19 kg/m3	476.23
536.1 K, Mass density=284.93 kg/m3	291.59
536.1 K, Mass density=286.65 kg/m3	323.99
536.1 K, Mass density=301.19 kg/m3	296.49
536.1 K, Mass density=347.06 kg/m3	251.27
536.29 K, Mass density=198.25 kg/m3	285.44
536.29 K, Mass density=245.67 kg/m3	329.17
536.29 K, Mass density=276.45 kg/m3	321.32
536.29 K, Mass density=279.19 kg/m3	304.71
536.29 K, Mass density=284.93 kg/m3	286.04
536.29 K, Mass density=286.65 kg/m3	321.09
536.29 K, Mass density=301.19 kg/m3	280.18
536.29 K, Mass density=347.06 kg/m3	249.79
536.47 K, Mass density=245.67 kg/m3	323.47
536.47 K, Mass density=276.45 kg/m3	313.68
536.47 K, Mass density=279.19 kg/m3	298.27
536.47 K, Mass density=284.93 kg/m3	280.77
536.47 K, Mass density=286.65 kg/m3	317.39
536.47 K, Mass density=301.19 kg/m3	281.66
536.47 K, Mass density=347.06 kg/m3	252.75
536.65 K, Mass density=245.67 kg/m3	321.24
536.65 K, Mass density=276.45 kg/m3	308.64
536.65 K, Mass density=279.19 kg/m3	293.23
536.65 K, Mass density=284.93 kg/m3	276.92
536.65 K, Mass density=286.65 kg/m3	311.53
536.65 K, Mass density=301.19 kg/m3	277.96
536.65 K, Mass density=347.06 kg/m3	246.82
536.83 K, Mass density=245.67 kg/m3	318.35
536.83 K, Mass density=276.45 kg/m3	300.12
536.83 K, Mass density=279.19 kg/m3	287.74
536.83 K, Mass density=284.93 kg/m3	274.25
536.84 K, Mass density=347.06 kg/m3	250.53
537.02 K, Mass density=279.19 kg/m3	289.37
537.02 K, Mass density=284.93 kg/m3	272.03
537.02 K, Mass density=301.19 kg/m3	263.13
537.02 K, Mass density=347.06 kg/m3	248.31
537.2 K, Mass density=245.67 kg/m3	296.34
537.2 K, Mass density=276.45 kg/m3	295.37
537.2 K, Mass density=279.19 kg/m3	287.81
537.2 K, Mass density=284.93 kg/m3	271.51
537.2 K, Mass density=286.65 kg/m3	304.94
537.2 K, Mass density=301.19 kg/m3	266.84
537.38 K, Mass density=245.67 kg/m3	296.56
537.38 K, Mass density=276.45 kg/m3	285.37
537.38 K, Mass density=279.19 kg/m3	282.48
537.38 K, Mass density=284.93 kg/m3	270.32
537.38 K, Mass density=286.65 kg/m3	304.42
537.38 K, Mass density=301.19 kg/m3	263.13
537.57 K, Mass density=245.67 kg/m3	297.52
537.57 K, Mass density=276.45 kg/m3	284.11
537.57 K, Mass density=279.19 kg/m3	284.26
537.57 K, Mass density=284.93 kg/m3	268.17
537.57 K, Mass density=286.65 kg/m3	301.23
537.57 K, Mass density=301.19 kg/m3	260.17
537.75 K, Mass density=276.45 kg/m3	282.92
537.75 K, Mass density=284.93 kg/m3	267.36
537.75 K, Mass density=286.65 kg/m3	302.27
537.75 K, Mass density=301.19 kg/m3	260.17
537.93 K, Mass density=117 kg/m3	227.92
537.93 K, Mass density=279.19 kg/m3	277.21
537.93 K, Mass density=286.65 kg/m3	301.23
537.93 K, Mass density=301.19 kg/m3	259.43
538.11 K, Mass density=117 kg/m3	182.93
538.11 K, Mass density=279.19 kg/m3	274.92
538.11 K, Mass density=301.19 kg/m3	253.5
538.3 K, Mass density=279.19 kg/m3	277.66
538.3 K, Mass density=286.65 kg/m3	295.15
538.3 K, Mass density=301.19 kg/m3	255.72
538.48 K, Mass density=117 kg/m3	269.06
